# In patent US20220162215A1, “COMPOSITIONS AND METHODS OF USING THE SAME FOR TREATMENT OF NEURODEGENERATIVE AND MITOCHONDRIAL DISEASE” (MITOKININ, INC., priority 2019, published 2022):
# Entries after “also recorded” stand apart in the source; their conditions may differ. Read-outs that look alike come from different tables or passages of the source.
# What was measured:
# HeLa MKYP cells = experiment: Human mitophagy assay (HeLa MKYP, mtKeima FACS, FCCP/oligomycin); format: cell-based; conditions: for EC50: Homo sapiens, HeLa
# Method: Briefly, HeLa MKYP cells were plated at 10,000 cells/well in 96 well plates along with compounds at various concentrations. Following 16 hrs of incubation, cells were treated with 1 uM FCCP/oligomycin for 6 hours, then analyzed via FACS for the presence of mitochondria in lysosomes (as determined by an emissions spectrum shift from the pH-sensitive mtKeima tag). Examples are shown in FIG. 1 through FIG. 13 below.
# mitotoxicity = experiment: Mitotox safety margin (therapeutic window); format: cell-based
# Solubility in 1× PBS = format: physicochemical
# PINK1/parkin pathway = experiment: Parkin recruitment to mitochondria, live cell imaging; format: cell-based, human; conditions: PINK1wt vs PINK1ko cells, FIG. 18
# Method: When the PINK1/parkin pathway is activated by FCCP, PINK1 is stabilized on the mitochondrial membrane, and its activity leads to the recruitment of parkin to the mitochondria (Narendra et al., PLoS Biol 2010; Narendra et al., J. Cell Biol 2008; Vives-Bauza et al., PNAS 2009). The aim of this assay is to test how MTK compounds affect the speed of parkin recruitment to the mitochondria. Briefly, HeLa-MKYP cells were plated at 7,000 cells/well in 96-well plates along with compounds at various concentrations. Following 16 hours of incubation, cells were treated in phenol-free media with 1 μM FCCP/oligomycin (F/O) along with compounds at various doses for 2-3 hours. Immediately following addition of new media, the cell treatment plate was transferred to a CO2 and temperature-regulated chamber in a high-content imaging microscope [Molecular Devices], to acquire images from live cells at regular intervals during the treatment timecourse. Appropriate controls were included on each plate to obtain a maximum signal from treatment with 2 μM F/O, or a minimum signal from cells treated with no F/O with DMSO for each cell type tested (HeLa-MKYP WT or PINK1^KO). Images were analyzed using MetaExpress 6 software package, and automatically processed after setting thresholds to define overlap between the YFP-parkin signal and red mitochondrial signal based on controls. […]
# dOTC = experiment: Ornithine carbamoyltransferase (dOTC) assay; format: cell-based
# Description: The expression of a deletion mutant of dOTC yields Triton X-100 insoluble protein aggregates in the mitochondrial matrix. This misfolded protein expression is capable of recruiting PINK1/Parkin to mitochondria without depolarizing the inner mitochondrial membrane. Thus, without wishing to be bound by theory, it may represent a more physiological mechanism of PINK1 stabilization.
# Here, HeLa cells stably expressing YFP parkin, containing doxycycline inducible expression of dOTC, were obtained. The cells were seeded at 20000 cells/well plus doxycycline (1 μg/mL) plus MTK on a 96-well plate. On Day 3, the cells were fixed and permeabilized and bound with OTC antibody. DAPI and cell mask were added. There was no wash off of dox. The results were imaged at 40×, non-confocal. 85-600 cells were analyzed per well. Each condition had 1-3 wells.
# [1] = In vivo summary, pharmacokinetics, rat
# Method: Referring to Tables 8A-C below, an in vivo summary of EP-0035985 IV at 1 mg/kg (8A), PO 10 mg/kg (8B), and a tissue distribution, mouse (8C) is shown below.
# PINK1 = molecular target: T1, PINK1 (Homo sapiens, UniProt Q9BXM7); experiment: PINK1 phosphorylation in HeLa cells (PhosTag gel electrophoresis); format: cell-based
# T1 construct: for each cell type tested (HeLa-MKYP WT or PINK1^KO); endogenous in cells; host or cells: HeLa-MKYP (WT) / HeLa cells
# [2] = three days of treatment with DOX and 50 μM
# T1 sequence (Q9BXM7 78-581): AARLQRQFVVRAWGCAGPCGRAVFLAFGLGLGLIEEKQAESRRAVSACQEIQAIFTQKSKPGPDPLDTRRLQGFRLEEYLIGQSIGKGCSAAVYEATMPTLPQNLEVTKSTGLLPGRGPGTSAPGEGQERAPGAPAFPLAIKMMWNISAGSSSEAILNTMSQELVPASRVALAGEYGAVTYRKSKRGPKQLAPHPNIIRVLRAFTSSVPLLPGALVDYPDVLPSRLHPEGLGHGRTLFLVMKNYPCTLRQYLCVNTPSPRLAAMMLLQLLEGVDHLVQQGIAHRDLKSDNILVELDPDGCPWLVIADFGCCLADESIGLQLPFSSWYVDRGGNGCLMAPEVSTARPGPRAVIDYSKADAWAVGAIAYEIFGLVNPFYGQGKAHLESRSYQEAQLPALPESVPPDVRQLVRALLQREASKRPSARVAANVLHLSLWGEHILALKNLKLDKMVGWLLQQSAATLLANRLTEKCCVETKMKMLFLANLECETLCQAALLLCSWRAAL
smiles,measurement,setting,value
FC(F)(F)c1cc2c(NC3CCCc4ccccc43)ncnc2[nH]1 (stereo not drawn) [Compound 15],EC50,"HeLa MKYP cells; Table 3 Supplement B, read-out: Mitophagy EC50 (HeLa mKeima assay)",440 ± 120 nM
same,EC50,"HeLa MKYP cells; Table 4, read-out: Potency (EC50 Max Mitophagy)",440 ± 120 nM
same,mitophagy as measured by FACS mKeima,"HeLa MKYP cells; PINK1wt vs PINK1ko cell lines, FIG. 19",increases mitophagy as measured by FACS mKeima in PINK1^wt but not PINK1^ko cell lines
same,Potency at 1 μM F/O toxin*,"HeLa MKYP cells; Table 2, % activation of mitophagy at 1.6 μM treatment of the compound",55.5%
same,Mitotox safety margin (Therapeutic window),mitotoxicity; class of the Ratio,++++ (ratio 30<)
same,Ratio**,mitotoxicity; highest concentration with no observable mitotoxicity (μM) divided by the EC50 (μM) of the compound,40.02
same,solubility,Solubility in 1× PBS,1 µM
same,rate of Parkin recruitment,PINK1/parkin pathway,increases the rate of Parkin recruitment in PINK1^wt but not PINK1^ko cells
same,dOTC proteins / delta OTC aggregates,"dOTC; induced by doxycycline, FIG. 16, FIG. 20, listed as EP-0035985",able to reduce the accumulated dOTC proteins; also recorded: reduces delta OTC aggregates from mitochondria
same,OTC signal,dOTC; [2],very effective at reducing OTC signal
same,cell counts,dOTC; [2],cell counts were lower
same,AUCExtr,"[1]; IV at 1 mg/kg, Table 8A",2.5%
same,AUClast,"[1]; IV at 1 mg/kg, Table 8A",837.5 ng·h/mL
same,C0,"[1]; IV at 1 mg/kg, Table 8A",1667.7 ng/mL
same,CL,"[1]; IV at 1 mg/kg, Table 8A",19.5 mL/min/kg
same,MRTlnf,"[1]; IV at 1 mg/kg, Table 8A",2.0 h
same,T1/2,"[1]; IV at 1 mg/kg, Table 8A",3.6 h
same,Vss,"[1]; IV at 1 mg/kg, Table 8A",2.4 L/kg
same,Vz,"[1]; IV at 1 mg/kg, Table 8A",6.0 L/kg
same,AUClast,"[1]; PO 10 mg/kg, Table 8B",692.4 ng·h/mL
same,MRTlnf,"[1]; PO 10 mg/kg, Table 8B",88.1 h
same,Vss,"[1]; PO 10 mg/kg, Table 8B",7.9 L/kg
same,AUC,"[1]; in vivo, IV at 1 mg/kg, Table 8A",838 ng·h/mL
same,AUC,"[1]; in vivo, PO 10 mg/kg, Table 8B",7350 ng·h/mL
same,C0,"[1]; in vivo, PO 10 mg/kg, Table 8B, read-out: C0",2.6 ng/mL
same,pS65 Ubiquitin,"PINK1; 0.5, 1 μM FCCP, FIG. 33C","significant increase in pS65 Ubiquitin at 0.5, 1 μM FCCP"
same,levels of PINK1phospho,"PINK1; HeLa cells, 2.8 μM compound and 0.5, 1.0, or 2.0 μM FCCP, FIG. 33A",significantly increases the levels of PINK1phospho
